Measured values: patent US8642544B2, “N-terminus conformationally constrained GLP-1 receptor agonist compounds” (Amylin Pharmaceuticals, LLC, priority 2009, dated 2014)

system: NIH/Swiss female mice; assay: in vivo basal glucose lowering assay; settings: Table 1, result in words (inactive / similar to GLP-1), subcutaneous injection
Procedure: Some compounds shown in Table 1 below were analyzed in an in vivo basal glucose lowering assay using the following procedure: A subcutaneous injection of either 200 μl phosphate-buffered saline (PBS) vehicle or test article was given immediately following baseline glucose (t=0) to NIH/Swiss female mice. Tail blood glucose samples were measured at t=2 and 4 hours post dose using a OneTouch® Ultra® (LifeScan, Inc., a Johnson & Johnson Company, Milpitas, Calif.). Body weight was measured daily. Significant test sample effects were identified by ANOVA (p<0.05), followed by Dunnett's post test using GraphPad Prism version 4.00 for Windows (GraphPad Software, San Diego Calif.).

Compound | In Vivo Glucose-Lowering Assay
CC[C@H](C)[C@H](NC(=O)[C@H](Cc1ccccc1)NC(=O)[C@H](CC(C)C)NC(=O)[C@H](CCCNC(=N)N)NC(=O)[C@@H](NC(=O)[C@H](C)NC(=O)[C@H](CCC(=O)O)NC(=O)[C@H](CCC(=O)O)NC(=O)[C@H](CCC(=O)O)NC(=O)[C@H](CC(C)C)NC(=O)[C@H](CCC(N)=O)NC(=O)[C@H](CCCCN)NC(=O)[C@H](CO)NC(=O)[C@H](CC(C)C)NC(=O)[C@H](CC(=O)O)NC(=O)[C@H](CO)NC(=O)[C@@H](NC(=O)[C@H](Cc1ccccc1)NC(=O)[C@@H](NC(=O)[C@H]1CCCN(C(=O)[C@@H]2CCCN(C(=O)[C@H](C)NC(=O)[C@@H](N)Cc3c[nH]cn3)C2)C1)[C@@H](C)O)[C@@H](C)O)C(C)C)C(=O)N[C@@H](CCC(=O)O)C(=O)N[C@@H](Cc1c[nH]c2ccccc12)C(=O)N[C@@H](CC(C)C)C(=O)N[C@@H](CCCCN)C(=O)N[C@@H](CCC(N)=O)C(=O)NCC(=O)NCC(=O)N1CCC[C@H]1C(=O)N[C@@H](CO)C(=O)N[C@@H](CCCCN)C(=O)N[C@@H](CCC(=O)O)C(=O)N[C@H](C(=O)N[C@H](C(=O)N[C@@H](CO)C(N)=O)[C@@H](C)CC)[C@@H](C)CC [15A] | inactive
CC[C@H](C)[C@H](NC(=O)[C@H](Cc1ccccc1)NC(=O)[C@H](CC(C)C)NC(=O)[C@H](CCCNC(=N)N)NC(=O)[C@@H](NC(=O)[C@H](C)NC(=O)[C@H](CCC(=O)O)NC(=O)[C@H](CCC(=O)O)NC(=O)[C@H](CCC(=O)O)NC(=O)[C@H](CC(C)C)NC(=O)[C@H](CCC(N)=O)NC(=O)[C@H](CCCCN)NC(=O)[C@H](CO)NC(=O)[C@H](CC(C)C)NC(=O)[C@H](CC(=O)O)NC(=O)[C@H](CO)NC(=O)[C@@H](NC(=O)[C@H](Cc1ccccc1)NC(=O)[C@@H](NC(=O)CNC(=O)[C@H]1CCCN(C(=O)[C@@H]2CCCN(C(=O)[C@@H](N)Cc3c[nH]cn3)C2)C1)[C@@H](C)O)[C@@H](C)O)C(C)C)C(=O)N[C@@H](CCC(=O)O)C(=O)N[C@@H](Cc1c[nH]c2ccccc12)C(=O)N[C@@H](CC(C)C)C(=O)N[C@@H](CCCCN)C(=O)N[C@@H](CCC(N)=O)C(=O)NCC(=O)NCC(=O)N1CCC[C@H]1C(=O)N[C@@H](CO)C(=O)N[C@@H](CCCCN)C(=O)N[C@@H](CCC(=O)O)C(=O)N[C@H](C(=O)N[C@H](C(=O)N[C@@H](CO)C(N)=O)[C@@H](C)CC)[C@@H](C)CC [15C] | inactive
CC[C@H](C)[C@H](NC(=O)[C@H](Cc1ccccc1)NC(=O)[C@H](CC(C)C)NC(=O)[C@H](CCCNC(=N)N)NC(=O)[C@@H](NC(=O)[C@H](C)NC(=O)[C@H](CCC(=O)O)NC(=O)[C@H](CCC(=O)O)NC(=O)[C@H](CCC(=O)O)NC(=O)[C@H](CC(C)C)NC(=O)[C@H](CCC(N)=O)NC(=O)[C@H](CCCCN)NC(=O)[C@H](CO)NC(=O)[C@H](CC(C)C)NC(=O)[C@H](CC(=O)O)NC(=O)[C@H](CO)NC(=O)[C@@H](NC(=O)[C@H](Cc1ccccc1)NC(=O)[C@@H](NC(=O)CNC(=O)[C@@H]1CCCN(C(=O)[C@H]2CCCN(C(=O)[C@@H](N)Cc3c[nH]cn3)C2)C1)[C@@H](C)O)[C@@H](C)O)C(C)C)C(=O)N[C@@H](CCC(=O)O)C(=O)N[C@@H](Cc1c[nH]c2ccccc12)C(=O)N[C@@H](CC(C)C)C(=O)N[C@@H](CCCCN)C(=O)N[C@@H](CCC(N)=O)C(=O)NCC(=O)NCC(=O)N1CCC[C@H]1C(=O)N[C@@H](CO)C(=O)N[C@@H](CCCCN)C(=O)N[C@@H](CCC(=O)O)C(=O)N[C@H](C(=O)N[C@H](C(=O)N[C@@H](CO)C(N)=O)[C@@H](C)CC)[C@@H](C)CC [15D] | inactive

same assay, conditions: Table 1, time in hours, subcutaneous injection, tail blood glucose at t=2 and 4 hours post dose

Compound | In Vivo Glucose-Lowering Assay
CC[C@H](C)[C@H](NC(=O)[C@H](Cc1ccccc1)NC(=O)[C@H](CC(C)C)NC(=O)[C@H](CCCNC(=N)N)NC(=O)[C@@H](NC(=O)[C@H](C)NC(=O)[C@H](CCC(=O)O)NC(=O)[C@H](CCC(=O)O)NC(=O)[C@H](CCC(=O)O)NC(=O)[C@H](CC(C)C)NC(=O)[C@H](CCC(N)=O)NC(=O)[C@H](CCCCN)NC(=O)[C@H](CO)NC(=O)[C@H](CC(C)C)NC(=O)[C@H](CC(=O)O)NC(=O)[C@H](CO)NC(=O)[C@@H](NC(=O)[C@H](Cc1ccccc1)NC(=O)[C@@H](NC(=O)CNC(=O)[C@@H]1CCCN1C(=O)CNC(=O)[C@@H](N)Cc1c[nH]cn1)[C@@H](C)O)[C@@H](C)O)C(C)C)C(=O)N[C@@H](CCC(=O)O)C(=O)N[C@@H](Cc1c[nH]c2ccccc12)C(=O)N[C@@H](CC(C)C)C(=O)N[C@@H](CCCCN)C(=O)N[C@@H](CCC(N)=O)C(=O)NCC(=O)NCC(=O)N1CCC[C@H]1C(=O)N[C@@H](CO)C(=O)N[C@@H](CCCCN)C(=O)N[C@@H](CCC(=O)O)C(=O)N[C@H](C(=O)N[C@H](C(=O)N[C@@H](CO)C(N)=O)[C@@H](C)CC)[C@@H](C)CC [2B] | more than 4 hours
CC[C@H](C)[C@H](NC(=O)[C@H](Cc1ccccc1)NC(=O)[C@H](CC(C)C)NC(=O)[C@H](CCCNC(=N)N)NC(=O)[C@@H](NC(=O)[C@H](C)NC(=O)[C@H](CCC(=O)O)NC(=O)[C@H](CCC(=O)O)NC(=O)[C@H](CCC(=O)O)NC(=O)[C@H](CC(C)C)NC(=O)[C@H](CCC(N)=O)NC(=O)[C@H](CCCCN)NC(=O)[C@H](CO)NC(=O)[C@H](CC(C)C)NC(=O)[C@H](CC(=O)O)NC(=O)[C@H](CO)NC(=O)[C@@H](NC(=O)[C@H](Cc1ccccc1)NC(=O)[C@@H](NC(=O)CNC(=O)[C@@H]1CCCCN1C(=O)CNC(=O)[C@@H](N)Cc1c[nH]cn1)[C@@H](C)O)[C@@H](C)O)C(C)C)C(=O)N[C@@H](CCC(=O)O)C(=O)N[C@@H](Cc1c[nH]c2ccccc12)C(=O)N[C@@H](CC(C)C)C(=O)N[C@@H](CCCCN)C(=O)N[C@@H](CCC(N)=O)C(=O)NCC(=O)NCC(=O)N1CCC[C@H]1C(=O)N[C@@H](CO)C(=O)N[C@@H](CCCCN)C(=O)N[C@@H](CCC(=O)O)C(=O)N[C@H](C(=O)N[C@H](C(=O)N[C@@H](CO)C(N)=O)[C@@H](C)CC)[C@@H](C)CC [2F] | more than 4 hours
CC[C@H](C)[C@H](NC(=O)[C@H](Cc1ccccc1)NC(=O)[C@H](CC(C)C)NC(=O)[C@H](CCCNC(=N)N)NC(=O)[C@@H](NC(=O)[C@H](C)NC(=O)[C@H](CCC(=O)O)NC(=O)[C@H](CCC(=O)O)NC(=O)[C@H](CCC(=O)O)NC(=O)[C@H](CC(C)C)NC(=O)[C@H](CCC(N)=O)NC(=O)[C@H](CCCCN)NC(=O)[C@H](CO)NC(=O)[C@H](CC(C)C)NC(=O)[C@H](CC(=O)O)NC(=O)[C@H](CO)NC(=O)[C@@H](NC(=O)[C@H](Cc1ccccc1)NC(=O)[C@@H](NC(=O)CNC(=O)[C@@H]1C[C@@H](O)CN1C(=O)CNC(=O)[C@@H](N)Cc1c[nH]cn1)[C@@H](C)O)[C@@H](C)O)C(C)C)C(=O)N[C@@H](CCC(=O)O)C(=O)N[C@@H](Cc1c[nH]c2ccccc12)C(=O)N[C@@H](CC(C)C)C(=O)N[C@@H](CCCCN)C(=O)N[C@@H](CCC(N)=O)C(=O)NCC(=O)NCC(=O)N1CCC[C@H]1C(=O)N[C@@H](CO)C(=O)N[C@@H](CCCCN)C(=O)N[C@@H](CCC(=O)O)C(=O)N[C@H](C(=O)N[C@H](C(=O)N[C@@H](CO)C(N)=O)[C@@H](C)CC)[C@@H](C)CC [2I] | more than 4 hours
